According to ChEMBL document CHEMBL5316301, “Dual Nicotinamide Phosphoribosyltransferase (NAMPT) and Indoleamine 2,3-Dioxygenase 1 (IDO1) Inhibitors for the Treatment of Drug-Resistant Nonsmall-Cell Lung Cancer” (J Med Chem, 2023):

Key:
[1] = biological target: T1, Indoleamine 2,3-dioxygenase 1 (Homo sapiens, UniProt P14902); assay: Inhibition of human recombinant IDO1 assessed as reduction in N-formylkynurenine formation using L-tryptophan as substrate preincubated for 30 mins followed by substrate addition and measured after 10 mins by SpectraMax microplate reader analysis
T1 sequence (P14902 whole entry): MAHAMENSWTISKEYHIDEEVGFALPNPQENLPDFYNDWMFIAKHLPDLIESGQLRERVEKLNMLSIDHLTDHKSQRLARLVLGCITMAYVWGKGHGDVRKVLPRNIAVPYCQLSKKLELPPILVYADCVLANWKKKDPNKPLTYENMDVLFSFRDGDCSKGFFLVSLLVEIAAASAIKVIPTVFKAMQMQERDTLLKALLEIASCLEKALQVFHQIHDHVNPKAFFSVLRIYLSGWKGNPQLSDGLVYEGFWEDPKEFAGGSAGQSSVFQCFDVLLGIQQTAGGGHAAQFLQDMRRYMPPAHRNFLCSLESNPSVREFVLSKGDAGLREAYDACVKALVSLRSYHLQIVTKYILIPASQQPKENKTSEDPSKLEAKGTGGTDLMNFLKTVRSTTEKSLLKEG

[2] = biological target: T1, Indoleamine 2,3-dioxygenase 1; assay: Inhibition of human recombinant IDO1 in human HeLa cells assessed as reduction in N-formylkynurenine formation using L-tryptophan as substrate preincubated for 24 hrs followed by substrate addition and measured after 30 mins; type: cell-based
[3] = biological target: Nicotinamide phosphoribosyltransferase (Homo sapiens, UniProt P43490); assay: Inhibition of recombinant NAMPT (unknown origin) incubated for 60 mins by SpectraMax microplate reader analysis
Chain of Nicotinamide phosphoribosyltransferase (P43490 whole entry): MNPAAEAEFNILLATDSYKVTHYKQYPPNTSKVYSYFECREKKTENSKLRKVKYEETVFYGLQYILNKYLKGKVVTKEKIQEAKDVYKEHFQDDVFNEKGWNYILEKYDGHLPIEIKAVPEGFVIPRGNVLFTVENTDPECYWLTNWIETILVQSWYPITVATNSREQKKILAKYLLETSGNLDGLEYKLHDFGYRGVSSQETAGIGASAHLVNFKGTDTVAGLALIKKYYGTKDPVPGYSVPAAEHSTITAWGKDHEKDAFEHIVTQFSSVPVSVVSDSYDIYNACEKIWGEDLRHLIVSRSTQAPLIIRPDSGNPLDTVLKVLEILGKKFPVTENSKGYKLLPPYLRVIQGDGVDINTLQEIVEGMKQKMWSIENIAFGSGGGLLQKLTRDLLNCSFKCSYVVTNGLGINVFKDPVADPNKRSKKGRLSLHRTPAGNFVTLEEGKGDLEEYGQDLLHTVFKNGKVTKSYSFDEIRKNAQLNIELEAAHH

A549 [4] = assay: Antiproliferative activity against NAMPT inhibitor-resistant A549 cells assessed as reduction in cell viability measured for 48 hrs in presence of epacadostat by CCK-8 assay; type: functional, cell-based; details: Homo sapiens, A549, 48 h
A549 [5] = assay: cells; details: Homo sapiens, A549, 48 h

| SMILES | IC50 [1] [nM] | IC50 [2] [nM] | IC50 [3] [µM] | IC50 (A549 [4]) [µM] | IC50 (A549 [5]) [µM] |
| --- | --- | --- | --- | --- | --- |
| O=C(NCCCNc1nonc1/C(=N/O)Nc1ccc(F)c(Br)c1)c1ccc2nccn2c1 | > 1000 | > 1000 | – | – | – |
| O=C(NCCCCCNc1nonc1/C(=N/O)Nc1ccc(F)c(Br)c1)c1ccc2nccn2c1 | 858 | 670 | – | – | – |
| O=C(NCc1ccc(CNc2nonc2/C(=N/O)Nc2ccc(F)c(Br)c2)cc1)c1ccc2nccn2c1 | > 1000 | – | 4.88 | – | – |
| O=C(CCCCNc1nonc1/C(=N/O)Nc1ccc(F)c(Br)c1)Nc1ccc(CNC(=O)c2ccc3nccn3c2)cc1 | 750 | 649 | – | – | – |
| O=C(CCCNc1nonc1/C(=N/O)Nc1ccc(F)c(Br)c1)Nc1ccc(CNC(=O)c2ccc3nccn3c2)cc1 | 730 | 663 | > 10 | – | – |
| O=C(NCCCCNc1nonc1/C(=N/O)Nc1ccc(F)c(Br)c1)c1ccc(CNC(=O)c2ccc3nccn3c2)cc1 | 835 | 677 | – | – | – |
| O=C(CCNc1nonc1/C(=N/O)Nc1ccc(F)c(Br)c1)Nc1ccc(CNC(=O)c2ccc3nccn3c2)cc1 | 151 | 161 | – | – | – |
| O=C(NCc1ccc(C(=O)N2CCC(CNc3nonc3/C(=N/O)Nc3ccc(F)c(Br)c3)CC2)cc1)c1ccc2nccn2c1 | > 1000 | – | – | – | – |
| O=C(/C=C/c1cccnc1)NCCCCC1CCN(C(=O)c2ccccc2)CC1 [DAPORINAD] | – | – | – | 34.5 | 52.1 |
